How the values were obtained:
Type in all cases: functional, cell-based
Glutamate receptor 2 [1] = target: T1, Glutamate receptor 2 (Homo sapiens, UniProt P42262); experiment: Activity at human recombinant iGluR2 flip expressed in HEK293 cells measured as change in intracellular calcium ion concentration in presence of glutamate by FLIPR assay
Glutamate receptor 2 [2] = target: T1, Glutamate receptor 2; experiment: Activity at human recombinant iGluR2 flop expressed in HEK293 cells measured as change in intracellular calcium ion concentration in presence of glutamate by FLIPR assay
Glutamate receptor 4 [3] = target: T2, Glutamate receptor 4 (Homo sapiens, UniProt P48058); experiment: Activity at human recombinant iGluR4 flop expressed in HEK293 cells measured as change in intracellular calcium ion concentration in presence of glutamate by FLIPR assay
Glutamate receptor 4 [4] = target: T2, Glutamate receptor 4; experiment: Activity at human recombinant iGluR4 flip expressed in HEK293 cells measured as change in intracellular calcium ion concentration in presence of glutamate by FLIPR assay

T1 sequence (P42262 whole entry): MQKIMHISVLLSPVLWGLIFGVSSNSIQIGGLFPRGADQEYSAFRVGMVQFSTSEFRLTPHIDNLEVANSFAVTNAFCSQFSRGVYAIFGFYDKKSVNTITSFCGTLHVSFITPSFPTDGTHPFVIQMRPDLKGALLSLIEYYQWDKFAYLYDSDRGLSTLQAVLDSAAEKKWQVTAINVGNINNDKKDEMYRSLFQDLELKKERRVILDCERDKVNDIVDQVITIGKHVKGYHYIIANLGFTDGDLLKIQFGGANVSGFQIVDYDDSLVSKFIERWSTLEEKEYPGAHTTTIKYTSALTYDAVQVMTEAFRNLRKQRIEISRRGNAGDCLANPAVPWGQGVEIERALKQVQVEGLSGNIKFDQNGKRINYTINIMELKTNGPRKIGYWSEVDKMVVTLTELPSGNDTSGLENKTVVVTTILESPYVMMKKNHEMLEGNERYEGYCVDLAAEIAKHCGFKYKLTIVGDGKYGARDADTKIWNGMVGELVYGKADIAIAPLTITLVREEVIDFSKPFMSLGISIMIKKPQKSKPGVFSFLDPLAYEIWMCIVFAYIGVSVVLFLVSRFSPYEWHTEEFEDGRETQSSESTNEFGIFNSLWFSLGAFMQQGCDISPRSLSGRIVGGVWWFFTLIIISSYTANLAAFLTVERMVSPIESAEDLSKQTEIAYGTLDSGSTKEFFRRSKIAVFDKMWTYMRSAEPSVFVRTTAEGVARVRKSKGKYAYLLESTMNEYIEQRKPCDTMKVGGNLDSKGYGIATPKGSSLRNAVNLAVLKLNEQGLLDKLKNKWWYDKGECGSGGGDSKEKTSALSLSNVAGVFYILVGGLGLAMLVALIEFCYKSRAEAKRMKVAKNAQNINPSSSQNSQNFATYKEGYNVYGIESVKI
T2 sequence (P48058 whole entry): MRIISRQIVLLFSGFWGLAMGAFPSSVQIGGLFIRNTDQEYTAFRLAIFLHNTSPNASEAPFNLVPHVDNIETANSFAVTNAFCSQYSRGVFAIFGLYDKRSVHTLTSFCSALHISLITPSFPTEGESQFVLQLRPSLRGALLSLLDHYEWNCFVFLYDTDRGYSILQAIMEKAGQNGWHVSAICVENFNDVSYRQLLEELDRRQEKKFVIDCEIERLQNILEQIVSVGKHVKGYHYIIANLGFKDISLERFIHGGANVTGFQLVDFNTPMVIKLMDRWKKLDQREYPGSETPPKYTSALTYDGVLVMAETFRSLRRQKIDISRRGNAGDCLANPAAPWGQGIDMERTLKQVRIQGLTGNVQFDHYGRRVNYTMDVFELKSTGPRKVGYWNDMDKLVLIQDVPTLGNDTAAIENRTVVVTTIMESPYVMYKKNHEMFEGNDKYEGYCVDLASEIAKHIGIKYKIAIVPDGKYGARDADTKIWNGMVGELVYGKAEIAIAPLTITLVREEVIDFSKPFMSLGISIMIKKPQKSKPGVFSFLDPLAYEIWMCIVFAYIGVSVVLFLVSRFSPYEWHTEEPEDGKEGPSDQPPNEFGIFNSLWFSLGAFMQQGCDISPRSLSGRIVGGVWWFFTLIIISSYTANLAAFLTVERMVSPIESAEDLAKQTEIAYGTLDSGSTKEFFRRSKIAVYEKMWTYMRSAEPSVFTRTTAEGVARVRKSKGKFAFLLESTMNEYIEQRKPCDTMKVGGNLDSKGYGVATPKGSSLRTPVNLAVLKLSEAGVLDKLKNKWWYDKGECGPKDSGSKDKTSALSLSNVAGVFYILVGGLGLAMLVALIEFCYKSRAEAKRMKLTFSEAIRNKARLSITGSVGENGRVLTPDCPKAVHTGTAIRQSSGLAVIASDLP

| SMILES | EC50 (Glutamate receptor 2 [1]) [nM] | EC50 (Glutamate receptor 2 [2]) [nM] | EC50 (Glutamate receptor 4 [3]) [nM] | EC50 (Glutamate receptor 4 [4]) [nM] |
| --- | --- | --- | --- | --- |
| CCc1c(C#N)c(-c2ccc(-c3ccccc3SC)cc2)c(C(=O)O)n1C | 57 | 32 | 77 | 105 |
| CCc1c(C#N)c(-c2ccc(-c3ccccc3C)cc2)c(C(=O)O)n1C | 270 | 990 | 1180 | 790 |
| CCc1c(C#N)c(-c2ccc(-c3ccc(C)cc3)cc2)c(C(=O)O)n1C | 412 | 1650 | > 3000 | 1140 |
| CCc1c(C#N)c(-c2ccc(-c3ccccc3OC)cc2)c(C(=O)O)n1C | 280 | 902 | 386 | 673 |
| CCc1c(C#N)c(-c2ccc(-c3cccc(Cl)c3)cc2)c(C(=O)O)n1C | 186 | 900 | > 3000 | 1080 |
| Cn1cc(C#N)c(-c2ccc(-c3ccccc3)cc2)c1C(=O)O | > 3000 | > 3000 | > 3000 | > 3000 |
| CC(C)Sc1c(C#N)c(-c2ccc(-c3ccccc3)cc2)c(C(=O)O)n1C | > 3000 | > 3000 | > 3000 | > 3000 |
| CCc1c(C#N)c(-c2ccc(-c3ccc(Cl)cc3)cc2)c(C(=O)O)n1C | 142 | 984 | > 3000 | 910 |
| CCc1c(C#N)c(-c2ccc(-c3cccc(C)c3)cc2)c(C(=O)O)n1C | 965 | 2130 | > 3000 | 2080 |
| Cn1c(Br)c(C#N)c(-c2ccc(-c3ccccc3)cc2)c1C(=O)O | > 3000 | > 3000 | 1690 | 679 |
| CCc1c(C#N)c(-c2ccc(-c3ccc(OC)cc3)cc2)c(C(=O)O)n1C | 423 | 370 | > 3000 | 738 |
| CCc1c(C#N)c(-c2ccc(-c3cccc(OC)c3)cc2)c(C(=O)O)n1C | 391 | 924 | > 3000 | 1050 |

Second part, the molecule after the results:

| EC50 (Glutamate receptor 2 [1]) [nM] | EC50 (Glutamate receptor 2 [2]) [nM] | EC50 (Glutamate receptor 4 [3]) [nM] | EC50 (Glutamate receptor 4 [4]) [nM] | SMILES |
| --- | --- | --- | --- | --- |
| 83 | 36 | 146 | 158 | CCOc1ccccc1-c1ccc(-c2c(C#N)c(CC)n(C)c2C(=O)O)cc1 |
|  |  |  | 619 | CCSc1c(C#N)c(-c2ccc(-c3ccccc3)cc2)c(C(=O)O)n1C |
| 345 | 1040 | 2950 | 242 | CCc1c(C#N)c(-c2ccc(-c3ccc(F)cc3)cc2)c(C(=O)O)n1C |
| 308 | 391 | 2390 | 532 | Cc1c(C#N)c(-c2ccc(-c3ccccc3)cc2)c(C(=O)O)n1C |
| 97 | 309 | 1560 | 214 | CSc1sc(C(=O)O)c(-c2ccc(C(C)(C)C)cc2)c1C#N |
| 423 | 370 | > 3000 | 373 | CCc1c(C#N)c(-c2ccc(-c3ccc(C#N)cc3)cc2)c(C(=O)O)n1C |
| 42 | 55 | 157 | 225 | CCc1c(C#N)c(-c2ccc(-c3ccccc3Cl)cc2)c(C(=O)O)n1C |
| 426 | 1490 | > 3000 | 223 | CCc1c(C#N)c(-c2ccc(-c3cccc(F)c3)cc2)c(C(=O)O)n1C |
| 395 | 974 | > 3000 | 631 | CCc1c(C#N)c(-c2ccc(-c3cccc(C#N)c3)cc2)c(C(=O)O)n1C |
| 82 | 73 | 53 | 56 | CCc1c(C#N)c(-c2ccc(-c3ccccc3C#N)cc2)c(C(=O)O)n1C |
| 111 | 143 | 185 | 80 | CCc1c(C#N)c(-c2ccc(-c3ccccc3F)cc2)c(C(=O)O)n1C |
| 174 | 473 | 1300 | 394 | CSc1c(C#N)c(-c2ccc(-c3ccccc3)cc2)c(C(=O)O)n1C |
| 103 | 398 | 1770 | 213 | CCc1c(C#N)c(-c2ccc(-c3ccccc3)cc2)c(C(=O)O)n1C |

Source: ChEMBL document CHEMBL1146909, “A novel class of positive allosteric modulators of AMPA receptors: design, synthesis, and structure-activity relationships of 3-biphenyl-4-yl-4-cyano-5-ethyl-1-methyl-1H-pyrrole-2-carboxylic acid, LY2059346” (Bioorg Med Chem Lett, 2006)
